# Laboratory results as given in PMC11009625, “Antibiotic class with potent in vivo activity targeting lipopolysaccharide synthesis in Gram-negative bacteria” (Proceedings of the National Academy of Sciences of the …, 2024).
# Where two headings read alike, the source gives them in different places.
# Experiments:
# [1] = tested on: clinical MDR K. pneumoniae isolates; assay: MIC, clinical multi-drug resistant K. pneumoniae isolates; format: cell-based; conditions: Klebsiella pneumoniae
# Protocol: (§1) Minimum inhibitory concentration (MIC) values were determined according to the Clinical Laboratory Standards Institute guidelines. Frequency of resistance was determined by plating ~5 × 10^8 bacterial cells on agar-solidified media plates containing test compound at concentrations corresponding to four times the measured solid-media MIC of the strains. Colonies were counted after 24 h, restreaked onto media containing the same concentration of compound, and the MIC remeasured against the assayed compound. Genomic DNA from isolated clones was sequenced by paired-end sequencing on an Illumina MiSeq device. Complete experimental details available in SI Appendix. […]
# (§2) Minimum inhibitory concentration (MIC) determination. Broth microdilution and agar dilution MIC assays were conducted according to CLSI guidelines (M07-2012). Appropriate inoculation suspension density was assessed using a Sensititre Nephelometer with a Sensititre 0.5 […]
# (§3) McFarland Standard. […]
# To determine the […]
# genotype of MDR strains from the ENABLE strain collection, de novo assembled contigs were […]
# [2] = tested on: K. pneumoniae ATCC 13883 (EN0006) and selected mutants; assay: MIC of mutants from frequency of resistance experiments; format: cell-based; conditions: for MIC EN0006: ATCC 13883 parent; for MIC EN0006 / MIC CH10219: lpxH wild-type; for MIC CH10218: lpxH F128L; for MIC CH10218 / MIC CH10220 / MIC CH10221 / MIC CH10219: selected against EBL-3647; for MIC CH10206 / MIC CH10220: lpxH F141S; for MIC CH10206 / MIC CH10205 / MIC CH10207: selected against EBL-3599; for MIC CH10205 / MIC CH10207 / MIC CH10221: lpxH R80H; for MIC CH10219: ramR A40V
# Protocol: as §1, §2, §3
# Frequency of Resistance. Frequency of resistance was assessed by spread plating between […] cfu of a freshly-grown culture of the strain of interest on plates containing a concentration of compound corresponding to 4 times the MIC of the strain (as determined by agar-dilution MIC). Serial dilutions of the same cultures were plated on non-selective media to determine the number of cells plated. The frequency of resistance was determined by dividing the number of colonies obtained on the selective plates after 24 hours of growth by the calculated total population plated. Typically 4 independently grown cultures were used to initiate 4 separate experiments, and the total combined number of obtained colonies and plated populations were used for calculations. Isolated colonies from selection plates were re-streaked on an additional plate containing the same concentration of compound used in the original selection. Clones were saved at -80 °C for subsequent analysis.
# Whole-genome sequencing and data analysis. Genomic DNA of selected clones was prepared using an Epicentre MasterPure Complete DNA Purification Kit. Whole-genome sequencing libraries were prepared using an Illumina Nextera XT Library Preparation Kit. The libraries were sequenced using an Illumina MiSeq device with a V3 600-cycle reagent kit. Whole-genome sequencing data was analyzed using CLC Genomics Workbench Version 11. To determine the genotype of MDR strains from the ENABLE strain collection, de novo assembled contigs were […]
# [3] = in vivo; parameters: species or system NMRI mice; conditions: female, NMRI, mouse, sc
# Protocol: PK and safety studies were done the Latvian Institute for Organic Synthesis (Riga, Latvia) and in vivo efficacy studies were done at Statens Serum Institut (Copenhagen, Denmark). Assays were done in accordance with the relevant permits at the respective sites (SI Appendix). For PK studies, plasma samples were taken from mice dosed subcutaneously and the samples were analyzed by UPLC/MS/MS. For in vivo efficacy studies, neutropenic mice were infected intraperitoneally with 10^6 bacteria and treated with subcutaneously with test compounds 1 h after infection. The mice were euthanized 4 h after treatment and serially diluted samples of blood and peritoneal fluid were plated onto blood agar plates. Complete experimental details available in SI Appendix. […]
# In vivo pharmacokinetic studies
# Animals. NMRI female mice (10–12 weeks old, 27–33 g, n = 60) were obtained from ENVIGO (The Netherlands) and housed prior to treatment under standard conditions (21–23 °C, 12-h light/dark cycle, relative humidity 45%–65%) with unlimited access to food (R70 diet from […]
# Lantmännen) and water. The experimental procedures were performed in accordance with the guidelines of the European Community and local laws and policies (Directive 2010/63/EU), and all of the procedures were approved by Food and Veterinary Service, Riga, Latvia. […]
# PK assay in mice. For PK studies mice were dosed subcutaneously (SC) via a single bolus injection (injection volume 10 mL/kg). Blood samples were collected in tubes containing heparin. Blood was sampled from tail vein 15, 30, 60, 120, and 240min after the SC administration of the compounds. Tubes were centrifuged at +4 °C 10,000× g for 3 min. Plasma samples were collected and stored at −20 °C until analysis.
# Plasma sample analysis by UPLC/MS/MS. Concentrations of EBL-3599 and EBL-3647 in mouse blood plasma were measured by liquid chromatography tandem mass spectrometry (LC/MS/MS) in positive electrospray ionization (ESI+) in multi reaction monitoring (MRM) mode.
# Analyses were performed on a Waters Acquity UPLC system coupled to Waters XEVO TQ-Smicro tandem mass spectrometer. Chromatographical separation was carried out on Waters Acquity BEH C18 column (2.1×50mm, 1.7µm). The column temperature was 30°C, flow rate was 0.4mL/min. Linear gradient elution was applied, solvent A was 0.1% formic acid in water and solvent B was acetonitrile. The gradient program was: 0min – 5% B; 2.5min – 98% B; 4.5min – 98% B; 4.7min – 5% B; 5min – 5% B. Injection volume was 1µL.
# Mass spectrometry parameters were obtained experimentally by direct infusion of EBL-3599 and […]
# energy was 30 for all transitions. MS/MS transitions for EBL-3647 were 667.80 > 225.90 and 667.80 > 309.96. Cone voltage was 15V and collision energy was 35 and 25, respectively.
# Calibration standards and quality control samples were prepared by spiking a blank mouse plasma with a stock solution of analyte to achieve a nominal concentration from 0.08 μg/mL to 80 μg/mL for both analyte.
# A sample volume of 20 μL was transferred into a plastic tube and mixed with 300μL acetonitrile/methanol mixture (3:1, v/v) to precipitate proteins. The tubes was vortexed to mix and centrifuged at 10000 rpm for 10 min. 200 μL of supernatant was diluted with 600 μL of 0.1% formic acid and subjected to LC/MS/MS analysis. Samples above the upper limit of calibration should be diluted 10 times with blank plasma extract and reanalyzed. Bioanalysis of samples from each mouse were measured in duplicate and the results averaged.
# Bacterial strains and inoculum. E. coli EC 106-09 (EN122) and K. pneumoniae SSI #3010 (EN124) are clinical isolates from Denmark. Bacterial suspensions for inoculation of mice were prepared
# [4] = read-out: MIC K. pneumoniae EN0140
# [5] = read-out: MIC K. pneumoniae EN0142
# [6] = read-out: MIC K. pneumoniae EN0143
# [7] = read-out: MIC K. pneumoniae EN0144
# [8] = read-out: MIC K. pneumoniae EN0145
# [9] = read-out: MIC K. pneumoniae EN0233
# [10] = read-out: MIC K. pneumoniae EN0245
# [11] = read-out: MIC K. pneumoniae EN0504
Compound,"MIC [1, 4] [µg/mL]","MIC [1, 5] [µg/mL]","MIC [1, 6] [µg/mL]","MIC [1, 7] [µg/mL]","MIC [1, 8] [µg/mL]","MIC [1, 9] [µg/mL]","MIC [1, 10] [µg/mL]","MIC [1, 11] [µg/mL]",MIC EN0006 [2] [µg/mL],MIC CH10218 [2] [µg/mL],MIC CH10206 [2] [µg/mL],MIC CH10220 [2] [µg/mL],MIC CH10205 [2] [µg/mL],MIC CH10207 [2] [µg/mL],MIC CH10221 [2] [µg/mL],MIC CH10219 [2] [µg/mL],AUC ([3]; 10 mg/kg) [ng·h/mL],Cmax ([3]; 10 mg/kg) [ng/mL],AUC ([3]; 25 mg/kg) [ng·h/mL],Cmax ([3]; 25 mg/kg) [ng/mL],also measured
Cc1cc(C#N)nc(N2CCN(S(=O)(=O)c3ccc(NC(=O)c4cc(CNCCCN)ccc4N(C)S(C)(=O)=O)cc3)CC2)n1.Cl.Cl [EBL-3599],1,2,2,2,4,4,8,4,1,64,> 64,> 64,32,32,> 64,8,22900,13000,58000,27000,AUC ([3]; 50 mg/kg): 136000 ng·h/mL; Cmax ([3]; 50 mg/kg): 65000 ng/mL; AUC ([3]; 100 mg/kg): 349000 ng·h/mL; Cmax ([3]; 100 mg/kg): 142000 ng/mL
Cc1cc(C#N)nc(N2CCN(S(=O)(=O)c3ccc(NC(=O)c4cc(CN5CC(CN)C5)ccc4N(C)S(C)(=O)=O)cc3)CC2)n1 [EBL-3647],1,2,2,2,4,4,4,4,1,32,> 64,> 64,32,32,> 64,8,20200,12000,55300,30000,AUC ([3]; 50 mg/kg): 140000 ng·h/mL; Cmax ([3]; 50 mg/kg): 72000 ng/mL; AUC ([3]; 100 mg/kg): 222000 ng·h/mL; Cmax ([3]; 100 mg/kg): 130000 ng/mL
